The structures appear in SMILES notation.

In this assay the target is T1, human V1a receptor (Homo sapiens, UniProt P37288).
T1 construct: expressed in transfected cells; host or cells: HEK293 cells, transiently transfected; cell membranes
The experiment in a line: human V1a receptor binding (3H-Vasopressin SPA, HEK293 cell membranes). The note with it: membranes from HEK293 cells transiently transfected with human V1a receptor, Ki by Cheng-Prussoff, read-out: pki (hV1a) (converted). As for the experimental part: The human V1a receptor was cloned by RT-PCR from total human liver RNA. The coding sequence was subcloned in an expression vector after sequencing to confirm the identity of the amplified sequence. […] Cell membranes were prepared from HEK293 cells transiently transfected with the expression vector and grown in 20 liter fermenters with the following protocol.
50 g of cells were resuspended in 30 ml freshly prepared ice cold Lysis buffer (50 mM HEPES, 1 mM EDTA, 10 mM MgCl2 adjusted to pH=7.4+complete cocktail of protease inhibitor (Roche Diagnostics)), homogenized with Polytron for 1 min, and sonicated on ice for 2×2 minutes at 80% intensity (Vibracell sonicator). The preparation was centrifuged 20 min at 500 g at 4° C., the pellet was discarded and the supernatant centrifuged 1 hour at 43,000 g at 4° C. (19,000 rpm). The pellet was resuspended in 12.5 ml Lysis buffer+12.5ml Sucrose 20% and homogenized using a Polytron for 1-2 min. The protein concentration was determined by the Bradford method and aliquots were stored at −80° C. until use. For binding studies 60 mg Yttrium silicate SPA beads (Amersham) were mixed with an aliquot of membrane in binding buffer (50 mM Tris, 120 mM NaCl, 5 mM KCl, 2 mM CaCl2, 10 mM MgCl2) for 15 minutes with mixing. 50 ul of bead/membrane mixture was then added to each well of a 96 well plate, followed by 50 ul of 4 nM 3H-Vasopressin (American Radiolabeled Chemicals). For total binding measurement 100 ul of binding buffer were added to the respective wells, for non-specific binding 100 ul of 8.4 mM cold vasopressin were added, and for compound testing 100 ul of a serial dilution of each compound in 2% DMSO were added. The plate was incubated 1 h at room temperature, centrifuged 1 min at 1000 g and counted on a Packard Top-Count. Non-specific binding counts were subtracted from each well and data was normalized to the maximum specific binding set at 100%. To calculate an IC 50 the curve was fitted using a non-linear regression model (XLfit) and the Ki was calculated using the Cheng-Prussoff equation.

T1 sequence (P37288 whole entry): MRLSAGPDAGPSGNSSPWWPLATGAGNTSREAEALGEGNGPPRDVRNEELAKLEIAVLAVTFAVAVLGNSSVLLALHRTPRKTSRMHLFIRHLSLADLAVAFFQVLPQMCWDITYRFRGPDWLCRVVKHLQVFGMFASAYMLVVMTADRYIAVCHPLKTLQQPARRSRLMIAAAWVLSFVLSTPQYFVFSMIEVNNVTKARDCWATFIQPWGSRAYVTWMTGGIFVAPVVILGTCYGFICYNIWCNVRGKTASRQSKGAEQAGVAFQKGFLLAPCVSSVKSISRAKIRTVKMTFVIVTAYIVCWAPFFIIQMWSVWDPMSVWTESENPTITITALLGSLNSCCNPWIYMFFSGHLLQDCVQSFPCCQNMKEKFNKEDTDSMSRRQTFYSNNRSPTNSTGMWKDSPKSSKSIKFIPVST

On to `N#CCc1cc(Cl)cc2cc(C(=O)N3CCC(c4cccc5[nH]c(=O)oc45)CC3)[nH]c12` [Example 1, {5-Chloro-2-[4-(2-oxo-2,3-dihydro-benzooxazol-7-yl)-piperidine-1-carbonyl]-1H-indol-7-yl}-acetonitrile], for which the Ki was 12.9 nM. Consider `O=C(c1cc2cc(Cl)cc(CN3CCOCC3)c2[nH]1)N1CCC(c2cccc3[nH]c(=O)oc23)CC1` [Example 2, 7-[1-(5-Chloro-7-morpholin-4-ylmethyl-1H-indole-2-carbonyl)-piperidin-4-yl]-3H-benzooxazol-2-one], for which the Ki is 6.53 nM. Next, `COc1cccc(OC)c1C1CCN(C(=O)c2cc3cc(Cl)ccc3[nH]2)CC1` [Example 5, (5-Chloro-1H-indol-2-yl)-[4-(2,6-dimethoxy-phenyl)-piperidin-1-yl]-methanone]: 40.7 nM; `COc1cccc(OC)c1C1CCN(C(=O)c2cc3cc(Cl)ccc3n2CC(=O)N(C)C)CC1` [Example 6, 2-{5-Chloro-2-[4-(2,6-dimethoxy-phenyl)-piperidine-1-carbonyl]-indol-1-yl}-N,N-dimethyl-acetamide]: 50.1 nM.

In the case of `COc1cccc(OC)c1C1CCN(C(=O)c2cc3cc(Cl)ccc3n2CC#N)CC1` [Example 7, {5-Chloro-2-[4-(2,6-dimethoxy-phenyl)-piperidine-1-carbonyl]-indol-1-yl}-acetonitrile], the Ki is 14 nM. As for `COc1cccc(OC)c1C1CCN(C(=O)c2cc3cccc(CC#N)c3[nH]2)CC1` [Example 8, {2-[4-(2,6-Dimethoxy-phenyl)-piperidine-1-carbonyl]-1H-indol-7-yl}-acetonitrile], the Ki was 86.1 nM. For `COc1cccc(OC)c1C1CCN(C(=O)c2cc3cc(Cl)cc(CC#N)c3[nH]2)CC1` [Example 9, {5-Chloro-2-[4-(2,6-dimethoxy-phenyl)-piperidine-1-carbonyl]-1H-indol-7-yl}-acetonitrile] the value was 19.5 nM; for `COc1ccccc1C1CCN(C(=O)c2cc3cc(Cl)cc(CC#N)c3[nH]2)CC1` [Example 10, {5-Chloro-2-[4-(2-methoxy-phenyl)-piperidine-1-carbonyl]-1H-indol-7-yl}-acetonitrile], 45.7 nM; for `COc1ccccc1C1CCN(C(=O)c2cc3cc(Cl)cc(CN4CCOCC4)c3[nH]2)CC1` [Example 11, (5-Chloro-7-morpholin-4-ylmethyl-1H-indol-2-yl)-[4-(2-methoxy-phenyl)-piperidin-1-yl]-methanone], 54.3 nM. Next, `Cc1c(C(=O)N2CC=C(c3ccccc3)CC2)[nH]c2c(C)cccc12` [Example 12, (3,7-Dimethyl-1H-indol-2-yl)-(4-phenyl-3,6-dihydro-2H-pyridin-1-yl)-methanone]: 96.6 nM.
